From ChEMBL document CHEMBL5335787, “Fragment-based and structure-guided discovery of perforin inhibitors” (Eur J Med Chem, 2023)

Experiments:
[1] = molecular target: T1, Perforin-1 (Homo sapiens) (UniProt P14222); assay: Inhibition of perforin-dependent cell killing activity of human KHYG-1 cells assessed as reduction in cytotoxicity against K562 cells preincubated for 20 mins followed by 51Cr labelled K562 cells addition and measured after 4 hrs by gamma counter analysis; type: cell-based; details: time 260.0 min
T1 sequence (whole entry): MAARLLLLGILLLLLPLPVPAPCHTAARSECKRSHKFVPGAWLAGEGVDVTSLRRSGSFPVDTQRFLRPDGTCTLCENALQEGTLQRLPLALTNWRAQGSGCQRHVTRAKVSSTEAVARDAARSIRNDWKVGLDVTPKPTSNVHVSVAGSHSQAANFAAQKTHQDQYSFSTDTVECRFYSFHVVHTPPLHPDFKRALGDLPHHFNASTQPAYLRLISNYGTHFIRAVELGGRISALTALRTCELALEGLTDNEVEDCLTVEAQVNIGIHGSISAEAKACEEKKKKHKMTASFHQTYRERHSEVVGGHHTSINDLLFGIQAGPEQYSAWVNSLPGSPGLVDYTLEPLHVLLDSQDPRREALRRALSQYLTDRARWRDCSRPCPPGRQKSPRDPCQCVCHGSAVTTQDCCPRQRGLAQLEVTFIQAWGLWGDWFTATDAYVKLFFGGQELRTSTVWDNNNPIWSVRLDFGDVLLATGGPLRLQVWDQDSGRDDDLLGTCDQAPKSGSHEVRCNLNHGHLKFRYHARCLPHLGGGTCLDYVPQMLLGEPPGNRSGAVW

[2] = Cytotoxicity against human KHYG-1 cells assessed as cell viability at 1 uM measured after 24 hrs by trypan blue staining based analysis relative to control; type: toxicity; details: read-out: Activity
[3] = Cytotoxicity against human KHYG-1 cells assessed as cell viability at 0.24 uM measured after 24 hrs by trypan blue staining based analysis relative to control; type: toxicity; details: read-out: Activity
[4] = Cytotoxicity against human KHYG-1 cells assessed as cell viability at 0.38 uM measured after 24 hrs by trypan blue staining based analysis relative to control; type: toxicity; details: read-out: Activity
[5] = molecular target: T1, Perforin-1 (Homo sapiens); assay: Inhibition of perforin-dependent cell killing activity of human KHYG-1 cells assessed as reduction in cytotoxicity against K562 cells at 100 uM preincubated for 20 mins followed by 51Cr labelled K562 cells addition and measured after 4 hrs by gamma counter analysis relative to control; type: cell-based; details: time 260.0 min
HepG2 = assay: Cytotoxicity against human HepG2 cells assessed as reduction in cell viability at 0.001 to 100 uM incubated for 5 days by SRB assay; type: toxicity, cell-based; details: hepg2, 120 h, dose 0.001-100 µM, time 5 day
[6] = molecular target: T2, Perforin-1 (Mus musculus) (UniProt P10820); assay: Binding affinity to recombinant mouse perforin expressed in baculovirus-infected Sf21 cells assessed as change in chemical shift by 19F NMR assay
T2 sequence (whole entry): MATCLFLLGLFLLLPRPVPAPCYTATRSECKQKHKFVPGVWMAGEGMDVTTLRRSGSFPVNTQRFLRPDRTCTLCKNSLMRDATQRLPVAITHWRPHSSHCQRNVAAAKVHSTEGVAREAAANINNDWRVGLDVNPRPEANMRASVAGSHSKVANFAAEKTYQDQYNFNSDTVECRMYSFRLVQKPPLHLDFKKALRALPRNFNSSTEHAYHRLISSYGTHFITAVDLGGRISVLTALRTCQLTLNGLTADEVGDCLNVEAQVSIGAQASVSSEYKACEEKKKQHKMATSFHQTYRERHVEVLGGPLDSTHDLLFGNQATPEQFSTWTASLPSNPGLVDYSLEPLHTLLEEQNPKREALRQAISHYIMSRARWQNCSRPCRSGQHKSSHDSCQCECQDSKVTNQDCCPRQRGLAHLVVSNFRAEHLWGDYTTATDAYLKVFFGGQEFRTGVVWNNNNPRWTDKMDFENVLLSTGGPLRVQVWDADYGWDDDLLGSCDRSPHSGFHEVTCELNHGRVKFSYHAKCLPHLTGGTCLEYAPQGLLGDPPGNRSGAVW

Perforin-1 [7] = molecular target: T3, Perforin-1 (Mus musculus, UniProt P10820); assay: Binding affinity to lipid-coated L1 chip immobilised recombinant mouse perforin expressed in baculovirus-infected Sf21 cells by SPR analysis
T3 sequence (P10820 whole entry): T2 sequence (whole entry)

Perforin-1 [8] = molecular target: T3, Perforin-1; assay: Binding affinity to CM5 chip immobilised recombinant mouse perforin expressed in baculovirus-infected Sf21 cells by SPR analysis

In the case of `Cc1cc(NS(=O)(=O)c2ccc(C)c(-c3cnc(N)nc3)c2)ccc1N`, the IC90 [1] is reported as 2.29 µM and the viability at 24 h, 1 µM [2] is reported as greater than 85%.
Compound `Cc1cc(C(N)=O)cc(S(=O)(=O)c2ccc(C)c(-c3cnc(N)nc3)c2)c1` has an IC90 [1] of 0.029 µM and a viability at 24 h, 0.24 µM [3] of 64%.
In the case of `Cc1ccc(S(=O)(=O)c2ccc3c(c2)CCN3)cc1-c1cnc2n[nH]cc2c1`, the IC90 [1] is reported as 0.04 µM, the viability at 24 h, 1 µM [2] is reported as 56% and the viability at 24 h, 0.38 µM [4] is reported as 97%.
For `Nc1ccc(S(=O)(=O)c2ccc(N)cc2)cc1` [DAPSONE], the IC90 [1] was greater than 100 µM, the inhibition [5] was 65% and the Activity (HepG2) was “Non-Toxic”.
`Cc1ccc(S(=O)(=O)c2ccc3c(c2)CNC3=O)cc1-c1cnc(N)nc1` gave an IC90 [1] of 0.199 µM and a viability at 24 h, 1 µM [2] greater than 85%.
With `CCNc1ccc(S(=O)(=O)c2ccc(C)c(-c3cnc(N)nc3)c2)c(C(F)(F)F)c1` the IC90 [1] was 0.031 µM and the Activity [6] was 14.5 Hz.
Work on `Cc1ccc(S(=O)(=O)c2ccc3c(c2)CCN3C)cc1-c1cnc(N)nc1` yielded an IC90 [1] of 0.406 µM and a viability at 24 h, 1 µM [2] greater than 85%.
Work on `CNC(=O)Nc1ccc(-c2cc(S(=O)(=O)c3ccc4c(c3)CCN4)ccc2C)cc1` yielded an IC90 [1] of 4.46 µM and a viability at 24 h, 1 µM [2] greater than 85%.
For `Cc1cc(S(=O)(=O)c2ccc(C)c(-c3cnc(N)nc3)c2)c(C(F)(F)F)cc1N`, the IC90 [1] was 0.203 µM and the Activity [6] was 7.6 Hz.
`Cc1ccc(S(=O)(=O)c2ccc3c(c2)CCO3)cc1-c1cnc(N)nc1` showed an IC90 [1] of 0.16 µM and a viability at 24 h, 1 µM [2] greater than 85%.
For `Cc1ccc(S(=O)(=O)c2ccc3c(c2)CCN3)cc1-c1ccc(N)nc1`, the IC90 [1] was 0.361 µM and the viability at 24 h, 1 µM [2] was greater than 85%.
For `Cc1cc(C(=O)Nc2ccc(C)c(-c3cnc(N)nc3)c2)ccc1N`, the IC90 [1] was greater than 30 µM and the viability at 24 h, 1 µM [2] was greater than 85%.
`Cc1cc(S(=O)(=O)c2ccc(C)c(-c3cnc(N)nc3)c2)ccc1N` gave an IC90 [1] of 0.169 µM, a viability at 24 h, 1 µM [2] greater than 85% and a Kd (Perforin-1 [7]) of roughly 0.2 µM. It also gave a Kd (Perforin-1 [8]) of 110 µM.
In the case of `Cc1ccc(S(=O)(=O)c2ccc3c(c2)CCN3)cc1-c1cnc(N)nc1`, the IC90 [1] is reported as 0.03 µM, the viability at 24 h, 1 µM [2] is reported as greater than 85% and the Activity (HepG2) is reported as “Non-Toxic”. It also gave a Kd (Perforin-1 [7]) of roughly 0.2 µM and a Kd (Perforin-1 [8]) of 85 µM.
Work on `Cc1ccc(S(=O)(=O)c2ccc3[nH]ccc3c2)cc1-c1cnc(N)nc1` yielded an IC90 [1] of 0.496 µM and a viability at 24 h, 1 µM [2] greater than 85%.
`Cc1ccc(S(=O)(=O)c2ccc(N)cc2)cc1-c1cccnc1` gave an IC90 [1] of 43 µM.
For `Cc1ccc(NS(=O)(=O)c2ccc(N)cc2C(F)(F)F)cc1-c1cnc(N)nc1`, the IC90 [1] was 1.9 µM and the Activity [6] was 5.5 Hz.
In the case of `Cc1ccc(S(=O)(=O)c2ccc3c(c2)CCN3)cc1-c1ccc2n[nH]cc2c1`, the IC90 [1] is reported as 1.04 µM and the viability at 24 h, 1 µM [2] is reported as greater than 85%.
Work on `Cc1cc(NC(=O)c2ccc(C)c(-c3cnc(N)nc3)c2)ccc1N` yielded an IC90 [1] greater than 30 µM and a viability at 24 h, 1 µM [2] greater than 85%.
Work on `Nc1ccc(S(=O)(=O)c2cccc(-c3cnc(N)nc3)c2)c(C(F)(F)F)c1` yielded an IC90 [1] of 0.131 µM and an Activity [6] of 8.5 Hz.
Compound `Cc1cc(S(=O)(=O)Nc2ccc(C)c(-c3cnc(N)nc3)c2)ccc1N` has an IC90 [1] of 0.07 µM and a viability at 24 h, 1 µM [2] greater than 85%.
In the case of `Cc1ccc(NS(=O)(=O)c2ccc3c(c2)CCN3)cc1-c1cnc(N)nc1`, the IC90 [1] is reported as 0.033 µM and the viability at 24 h, 1 µM [2] is reported as greater than 85%.
`Cc1ccc(S(=O)(=O)c2ccc(N)cc2C(F)(F)F)cc1-c1cnc(N)nc1` gave an IC90 [1] of 0.021 µM and an Activity [6] of 13.2 Hz.
In the case of `Cc1cc(S(=O)(=O)c2ccc3c(c2)CCN3)ccc1-c1cnc(N)nc1`, the IC90 [1] is reported as greater than 3 µM and the viability at 24 h, 1 µM [2] is reported as greater than 85%.
In the case of `Cc1ccc(S(=O)(=O)c2ccc3c(c2)CCNC3=O)cc1-c1cnc(N)nc1`, the IC90 [1] is reported as 0.04 µM and the viability at 24 h, 1 µM [2] is reported as greater than 85%.
In the case of `Cc1cc(S(=O)(=O)c2ccc(C)c(-c3cnc(N)nc3)c2)ccc1C(N)=O`, the IC90 [1] is reported as 0.155 µM and the viability at 24 h, 1 µM [2] is reported as greater than 85%.
Compound `Cc1cc2c(cc1-c1cnc(N)nc1)S(=O)(=O)c1ccc(C(N)=O)cc1CC2C` (stereo not drawn) has an IC90 [1] of 0.04 µM and a viability at 24 h, 1 µM [2] of 76%.
Work on `Cc1ccc(S(=O)(=O)c2ccc(N)cc2)cc1-c1cnc(N)nc1` yielded an IC90 [1] of 3.4 µM.
Compound `Cc1ccc(S(=O)(=O)c2ccc3[nH]ncc3c2)cc1-c1cnc(N)nc1` has an IC90 [1] of 0.281 µM and a viability at 24 h, 1 µM [2] greater than 85%.
